Experiments:
Oral toxicity in mice = type: in vivo; details: orally administered to mice, 1,000 mg/kg
[1] = system: Staphylococcus aureus B83-1 strain (derived from Newbould 305); experiment: Therapeutic test in bovine mammary glands with experimental mastitis; type: in vivo, Holstein dairy cow
Method: As the rifamycin derivative (1), a compound A wherein R is methyl group, i. e. R≡ CH3, was examined for its therapeutic effect on bovine mastitis as follows.
The therapeutic test for infection in bovine mammary glands was carried out by inoculating […] of Staphylococcus [Staphylococcus aureus B83-1 strain (derived from Newbould 305)] into one mammary gland of a Holstein dairy cow (2-5 years old) to cause experimental mastitis.
To one mammary gland of each cow in a treated group, the compound A used in the present invention was administered (infused through the lactiferous duct) in an amount of 50 mg in 10 ml of benzyl alcohol per day successively for two days, twenty-one days after the infection. To one mammary gland of each cow in a control group, benzyl alcohol was administered in an amount of 10 ml per day in the same manner as in the treated group. The therapeutic effect of the compound A was examined by counting colony forming units (CFUs) of Staphylococcus in 1 ml of milk obtained from a cow subjected to the test. Comparing the above two groups, the therapeutic effect of the compound A on bovine mastitis was evaluated.
Staphylococcus was inoculated into forty-four mammary glands of eleven cows. Twenty-one days later, the number of mammary glands wherein Staphylococcus was separated from milk, i.e. number of mammary glands with mastitis, was counted. […]

**Q.** For `COC1/C=C/OC2(C)Oc3c(C)c(O)c4c(=O)c(c5oc6cc(N7CCN(C)CC7)cc(O)c6nc-5c4c3C2=O)NC(=O)/C(C)=C\C=C\C(C)C(O)C(C)C(O)C(C)C(OC(C)=O)C1C` (stereo not drawn) [R = methyl], which toxicity (Oral toxicity in mice) is on record?
**A.** did not show any toxicity

**Q.** What about the curing ratio ([1]; cow, 50 mg per day for two days infused through the lactiferous duct, twenty-one days after infection) of the same compound?
**A.** 64%

**Q.** And the “mammary glands negative (at most ten CFU per ml milk) in all the examined days” value ([1]; of twenty-two treated mammary glands, 50 mg in 10 ml benzyl alcohol per day for two days via lactiferous duct, 7-28 days after administration)?
**A.** fourteen

Reference: patent publication US6486161B1, “Use of rifamycin derivative for treating mastitis in a domestic animal” (priority 2000, dated 2002)
